According to patent US20240269298A1, “PHOSPHONYL DERIVATIVE, AND COMPOSITION AND PHARMACEUTICAL APPLICATION THEREOF” (XIZANG HAISCO PHARMACEUTICAL CO., LTD., priority 2021, published 2024):
Like-named read-outs stand apart in the source and are kept apart here.

System: NCI-H1975 (EGFR-L858R-T790M) cells
Assay: Inhibitory activity on proliferation of NCI-H1975 (EGFR-L858R-T790M) cells (CTG, 72 h)
Format: cell-based
Conditions: Homo sapiens
Experimental: NCI-H1975 (EGFR-L858R-T790M) and A431 (EGFR-WT) cells were purchased from ATCC and cultured in an incubator at 37° C. with 5% CO2, and the culture mediums were RPMI1640+10% FBS and DMEM+10% FBS, respectively. On the first day, NCI-H1975 (EGFR-L858R-T790M) and A431 (EGFR-WT) cells in the logarithmic phase were collected, and viable cells were counted using an automatic cell analyzer (countstar). The cell suspensions were adjusted with the culture mediums and plated on a 96-well cell culture plate at 1000 cells/well for NCI-H1975 (EGFR-L858R-T790M) cells and at 3000 cells/well for A431 cells. The next day, the culture mediums were aspirated, and 90 μL of fresh culture mediums and 10 μL of the compounds at different concentrations were added to each well, wherein the final concentration of DMSO in each well was 0.1%. The plate was cultured in the incubator at 37° C. with 5% CO2 for 72 hours. After 72 hours of drug treatment, 50 μL of CTG solution (promega, G7572), which was already pre-melted and equilibrated to room temperature, was added to each well, and the mixtures were uniformly mixed for 2 min using a microplate shaker. The plate was placed at room temperature for 10 min, and then […] signal values were measured using a microplate reader (PHERAstar FSX).
Surviving cells % was calculated based on Vsample/Vvehicle control×100%, wherein Vsample was the readout of the drug-treated group, and Vvehicle control was the average value of the vehicle control group. Using the origin 9.2 software and nonlinear regression model, S-shaped dose-survival curves were plotted, and IC50 values were calculated.

[1] = read-out: IC50 (value in brackets)

IC50 (read-out: IC50 (class symbol)) [nM]	IC50 [1] [nM]	SMILES
< 100	34	COc1cc(N2CCC(CN3CCC4(CC3)CCN(c3ccc(C(=O)NC5CCC(=O)NC5=O)nc3)CC4)CC2)c(-c2cnn(C)c2)cc1Nc1ncc(Br)c(Nc2ccc(-c3ccccc3)cc2P(C)(C)=O)n1 (stereo not drawn) [Compound 69, 5-(9-((1-(4-((5-bromo-4-((3-(dimethylphosphoryl)-[1,1′-biphenyl]-4-yl)amino)pyrimidin-2-yl)amino)-5-methoxy-2-(1-methyl-1H-pyrazol-4-yl)phenyl)piperidin-4-yl)methyl)-3,9-diazaspiro[5.5]undecan-3-yl)-N-(2,6-dioxopiperidin-3-yl)picolinamide]
< 100	32	COc1cc(N2CCC(CN3CCN(c4ccc5c(c4)CN(C4CCC(=O)NC4=O)C5=O)CC3)CC2)c(-c2cnn(C)c2)cc1Nc1ncc(Cl)c(Nc2ccccc2P(C)(C)=O)n1 (stereo not drawn) [Compound 140, 3-(5-(4-((1-(4-((5-chloro-4-((2-(dimethylphosphoryl)phenyl)amino)pyrimidin-2-yl)amino)-5-methoxy-2-(1-methyl-1H-pyrazol-4-yl)phenyl)piperidin-4-yl)methyl)piperazin-1-yl)-1-oxoisoindolin-2-yl)piperidine-2,6-dione]
< 100	51	COc1cc(N2CCN(CC3CCN(c4ccc(C(=O)NC5CCC(=O)NC5=O)nc4)CC3)CC2)c(-c2cnn(C)c2)cc1Nc1ncc(Br)c(Nc2ccc(-c3ccccc3)cc2P(C)(C)=O)n1 (stereo not drawn) [Compound 123, 5-(4-((4-(4-((5-bromo-4-((3-(dimethylphosphoryl)-[1,1′-biphenyl]-4-yl)amino)pyrimidin-2-yl)amino)-5-methoxy-2-(1-methyl-1H-pyrazol-4-yl)phenyl)piperazin-1-yl)methyl)piperidin-1-yl)-N-(2,6-dioxopiperidin-3-yl)picolinamide]
100 to 500	116	COc1cc(N2CCN(C3CN(c4ccc5c(c4)C(=O)N(C4CCC(=O)NC4=O)C5=O)C3)CC2)c(-c2cnn(C)c2)cc1Nc1ncc(Cl)c(Nc2ccccc2P(C)(C)=O)n1 (stereo not drawn) [Compound 149, 5-(3-(4-(4-((5-chloro-4-((2-(dimethylphosphoryl)phenyl)amino)pyrimidin-2-yl)amino)-5-methoxy-2-(1-methyl-1H-pyrazol-4-yl)phenyl)piperazin-1-yl)azetidin-1-yl)-2-(2,6-dioxopiperidin-3-yl)isoindoline-1,3-dione]
< 100	68	COc1cc(N2CCC(CN3CCN(c4ccc(C5CCC(=O)NC5=O)cc4)CC3)CC2)c(-c2cnn(C)c2)cc1Nc1ncc(Cl)c(Nc2ccc(C3CC3)cc2P(C)(C)=O)n1 (stereo not drawn) [Compound 152, 3-(4-(4-((1-(4-((5-chloro-4-((4-cyclopropyl-2-(dimethylphosphoryl)phenyl)amino)pyrimidin-2-yl)amino)-5-methoxy-2-(1-methyl-1H-pyrazol-4-yl)phenyl)piperidin-4-yl)methyl)piperazin-1-yl)phenyl)piperidine-2,6-dione]
100 to 500	125	COc1cc(N2CCC3(CCN(Cc4cccc(NC5CCC(=O)NC5=O)c4)CC3)CC2)c(-c2cnn(C)c2)cc1Nc1ncc(Br)c(Nc2ccc(-c3ccccc3)cc2P(C)(C)=O)n1 (stereo not drawn) [Compound 129, 3-((3-((9-(4-((5-bromo-4-((3-(dimethylphosphoryl)-[1,1′-biphenyl]-4-yl)amino)pyrimidin-2-yl)amino)-5-methoxy-2-(1-methyl-1H-pyrazol-4-yl)phenyl)-3,9-diazaspiro[5.5]undecan-3-yl)methyl)phenyl)amino)piperidine-2,6-dione]
100 to 500	214	COc1cc(N2CCC(CN3CCN(c4ccc(N5CCC(=O)NC5=O)cc4)CC3)CC2)c(-c2cnn(C)c2)cc1Nc1ncc(Cl)c(Nc2ccc(C3CC3)cc2P(C)(C)=O)n1 [Compound 131, 1-(4-(4-((1-(4-((5-chloro-4-((4-cyclopropyl-2-(dimethylphosphoryl)phenyl)amino)pyrimidin-2-yl)amino)-5-methoxy-2-(1-methyl-1H-pyrazol-4-yl)phenyl)piperidin-4-yl)methyl)piperazin-1-yl)phenyl)dihydropyrimidine-2,4(1H,3H)-dione]
< 100	25	COc1cc(N2CCN(CC3CCN(c4ccc5c(c4)C(=O)N(C4CCC(=O)NC4=O)C5=O)CC3)CC2)c(-c2cnn(C)c2)cc1Nc1ncc(Cl)c(Nc2ccccc2P(C)(C)=O)n1 (stereo not drawn) [Compound 128, 5-(4-((4-(4-((5-chloro-4-((2-(dimethylphosphoryl)phenyl)amino)pyrimidin-2-yl)amino)-5-methoxy-2-(1-methyl-1H-pyrazol-4-yl)phenyl)piperazin-1-yl)methyl)piperidin-1-yl)-2-(2,6-dioxopiperidin-3-yl)isoindoline-1,3-dione]
< 100	34	COc1cc(N2CCC(N3CCC(CN4CCN(c5ccc6c(c5)C(=O)N(C5CCC(=O)NC5=O)C6=O)CC4)CC3)CC2)c(-c2cnn(C)c2)cc1Nc1ncc(Cl)c(Nc2ccc3nccnc3c2P(C)(C)=O)n1 (stereo not drawn) [Compound 8, 5-(4-((1′-(4-((5-chloro-4-((5-(dimethylphosphoryl)quinoxalin-6-yl)amino)pyrimidin-2-yl)amino)-5-methoxy-2-(1-methyl-1H-pyrazol-4-yl)phenyl)-[1,4′-bipiperidin]-4-yl)methyl)piperazin-1-yl)-2-(2,6-dioxopiperidin-3-yl)isoindoline-1,3-dione]
< 100	75	COc1cc(N2CCC3(CCN(CC4CCN(c5ccc6c(c5)C(=O)N(C5CCC(=O)NC5=O)C6=O)CC4)CC3)CC2)c(C2CC2)cc1Nc1ncc(Br)c(Nc2ccc3nccnc3c2P(C)(C)=O)n1 (stereo not drawn) [Compound 3, 5-(4-((9-(4-((5-bromo-4-((5-(dimethylphosphoryl)quinoxalin-6-yl)amino)pyrimidin-2-yl)amino)-2-cyclopropyl-5-methoxyphenyl)-3,9-diazaspiro[5.5]undecan-3-yl)methyl)piperidin-1-yl)-2-(2,6-dioxopiperidin-3-yl)isoindoline-1,3-dione]
< 100	71	COc1cc(N2CCN(CC3CCN(c4ccc(C(=O)NC5CCC(=O)NC5=O)nc4)CC3)CC2)c(-c2cnn(C)c2)cc1Nc1ncc(Cl)c(Nc2ccc(-c3ccccc3)cc2P(C)(C)=O)n1 (stereo not drawn) [Compound 124, 5-(4-((4-(4-((5-chloro-4-((3-(dimethylphosphoryl)-[1,1′-biphenyl]-4-yl)amino)pyrimidin-2-yl)amino)-5-methoxy-2-(1-methyl-1H-pyrazol-4-yl)phenyl)piperazin-1-yl)methyl)piperidin-1-yl)-N-(2,6-dioxopiperidin-3-yl)picolinamide]
100 to 500	301	COc1cc(N2CCC(CN3CCCC4(CCN(c5ccc6c(c5)C(=O)N(C5CCC(=O)NC5=O)C6=O)CC4)C3)CC2)c(-c2cnn(C)c2)cc1Nc1ncc(Br)c(Nc2ccc(-c3ccccc3)cc2P(C)(C)=O)n1 (stereo not drawn) [Compound 44, 5-(2-((1-(4-((5-bromo-4-((3-(dimethylphosphoryl)-[1,1′-biphenyl]-4-yl)amino)pyrimidin-2-yl)amino)-5-methoxy-2-(1-methyl-1H-pyrazol-4-yl)phenyl)piperidin-4-yl)methyl)-2,9-diazaspiro[5.5]undecan-9-yl)-2-(2,6-dioxopiperidin-3-yl)isoindoline-1,3-dione]
